Measured values reported in BindingDB's records for patent US20240316047 (Accent Therapeutics, 2024).

Biological target: ATP-dependent RNA helicase A (UniProt Q08211)
Assay: Biochemical Assay

Sequence of ATP-dependent RNA helicase A (Q08211 whole entry): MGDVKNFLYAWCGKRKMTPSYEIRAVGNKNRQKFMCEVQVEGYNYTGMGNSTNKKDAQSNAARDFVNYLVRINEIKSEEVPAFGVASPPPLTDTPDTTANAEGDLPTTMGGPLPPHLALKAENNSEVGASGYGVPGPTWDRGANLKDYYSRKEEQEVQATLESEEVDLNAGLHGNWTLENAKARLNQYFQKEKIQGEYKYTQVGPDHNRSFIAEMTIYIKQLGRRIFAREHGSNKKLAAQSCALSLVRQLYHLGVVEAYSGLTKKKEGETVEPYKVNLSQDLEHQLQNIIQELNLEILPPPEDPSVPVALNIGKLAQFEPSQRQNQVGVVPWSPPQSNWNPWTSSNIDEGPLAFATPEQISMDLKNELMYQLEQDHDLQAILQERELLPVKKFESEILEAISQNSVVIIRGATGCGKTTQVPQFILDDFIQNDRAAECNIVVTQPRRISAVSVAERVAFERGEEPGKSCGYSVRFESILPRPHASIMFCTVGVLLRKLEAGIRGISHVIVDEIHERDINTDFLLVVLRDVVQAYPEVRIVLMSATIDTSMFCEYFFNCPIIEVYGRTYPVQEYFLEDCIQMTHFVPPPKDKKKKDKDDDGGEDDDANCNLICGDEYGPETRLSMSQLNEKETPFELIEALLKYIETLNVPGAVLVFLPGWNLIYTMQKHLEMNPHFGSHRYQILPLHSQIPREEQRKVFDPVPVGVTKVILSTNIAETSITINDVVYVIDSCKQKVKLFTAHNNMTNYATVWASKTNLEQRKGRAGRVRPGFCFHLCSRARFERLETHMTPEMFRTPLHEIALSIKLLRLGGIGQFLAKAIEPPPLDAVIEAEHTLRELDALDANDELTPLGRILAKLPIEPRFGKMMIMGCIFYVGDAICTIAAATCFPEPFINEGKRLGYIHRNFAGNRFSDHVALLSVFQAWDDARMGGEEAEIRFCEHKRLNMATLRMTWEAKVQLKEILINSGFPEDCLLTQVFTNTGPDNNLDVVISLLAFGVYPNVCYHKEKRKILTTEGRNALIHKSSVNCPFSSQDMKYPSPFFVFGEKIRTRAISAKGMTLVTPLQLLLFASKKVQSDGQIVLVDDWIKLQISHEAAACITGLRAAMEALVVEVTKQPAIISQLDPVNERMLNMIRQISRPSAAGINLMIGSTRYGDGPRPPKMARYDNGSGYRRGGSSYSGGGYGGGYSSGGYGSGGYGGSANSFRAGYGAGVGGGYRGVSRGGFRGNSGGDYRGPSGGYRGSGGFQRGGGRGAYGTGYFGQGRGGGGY

IC50 [µM]	SMILES
0.0384	Cc1cc(C(=O)Nc2cc(Cl)cc(NS(C)(=O)=O)c2)cn1-c1ccccc1 [US20240316047, Example 129]
0.234	CC(C)(C)OC(=O)N1CCC(n2cc(C(=O)Nc3cc(Cl)cc(NS(C)(=O)=O)c3)cn2)CC1 [US20240316047, Example 136]
0.0511	Cc1cccnc1-c1cc(C(=O)Nc2cc(Cl)cc(NS(C)(=O)=O)c2)cn1CC(F)F [US20240316047, Example 143]
0.0108	Cc1sc(C(=O)Nc2cc(Cl)cc(NS(C)(=O)=O)c2)cc1-c1ncc(N2CCC3(C2)CC3(F)F)cn1 (centres undefined) [US20240316047, Example 491]
